# From paper PMC4096222 (Journal of Medicinal Chemistry, 2014)
# Like-named read-outs stand apart in the source and are kept apart here.
# Experiments:
# A/PR/8/34 (A/H1N1) = format: cell-based, influenza A virus
# MDCK cells = conditions: for cytotoxicity MCC: minimum cytotoxic concentration, minimal alterations in cell morphology after 72 h, MDCK; for concentration at which visibly toxic: MDCK cells
# A/HK/7/87 = format: cell-based, influenza A virus; conditions: for inhibition of plaque formation: at 0.5–2 μM, 72 h
# A/HK/7/87 (A/H3N2) = assay: microbe, parasite or virus in culture; format: cell-based; conditions: Influenza A virus, H3N2, MDCK, 72 h, read-out: antiviral EC50 values against A/HK/7/87 (range)
# A/M2 wt = A/M2 wt (Influenza A virus, UniProt P0DOF5); format: cell-based
# A/M2 wt, sequence (P0DOF5 whole entry, looked up): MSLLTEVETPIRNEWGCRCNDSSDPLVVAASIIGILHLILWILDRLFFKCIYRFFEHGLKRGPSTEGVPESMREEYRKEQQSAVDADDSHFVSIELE
# [1] = read-out: antiviral activity A/PR/8/34 EC50 (MTS)
# [2] = read-out: antiviral activity A/PR/8/34 EC50 (CPE)
compound,measurement,setting,value
"NC12CC3CC(CC(C3)C1)C2 [amantadine, reference compound]",EC50,A/PR/8/34 (A/H1N1); [1],34 µM
"C1=CC2C3CNCC3C1C1CC21.Cl (centres unmarked) [compound 4, 4-Azatetracyclo[5.3.2.0^2,6.0^8.10]dodec-11-ene Hydrochloride]",cytotoxicity MCC,MDCK cells,100 µM
same,activity in virus yield and plaque reduction assays,A/HK/7/87,confirmed the activity
same,EC50,A/HK/7/87 (A/H3N2),3 to 8 µM
same,inhibition of wt channel,A/M2 wt,potent low-micromolar inhibitors
same,EC50,A/PR/8/34 (A/H1N1); [2],> 100 µM
same,EC50,A/PR/8/34 (A/H1N1); [1],> 100 µM
"Cl.N=C(N)N1CC2C3C=CC(C4CC34)C2C1 (centres unmarked) [compound 5, 4-Amidino-4-azatetracyclo[5.3.2.0^2,6.0^8.10]dodec-11-ene Hydrochloride]",cytotoxicity MCC,MDCK cells,100 µM
same,inhibition of wt channel,A/M2 wt,potent low-micromolar inhibitors
same,EC50,A/PR/8/34 (A/H1N1); [2],> 100 µM
same,EC50,A/PR/8/34 (A/H1N1); [1],> 100 µM
"C1CC2C3CNCC3C1C1CC21.Cl (centres unmarked) [compound 6, 4-Azatetracyclo[5.3.2.0^2,6.0^8.10]dodecane Hydrochloride]",cytotoxicity MCC,MDCK cells,100 µM
same,activity in virus yield and plaque reduction assays,A/HK/7/87,confirmed the activity
same,EC50,A/HK/7/87 (A/H3N2),3 to 8 µM
same,inhibition of wt channel,A/M2 wt,potent low-micromolar inhibitors
same,EC50,A/PR/8/34 (A/H1N1); [2],> 100 µM
same,EC50,A/PR/8/34 (A/H1N1); [1],> 100 µM
"Cl.N=C(N)N1CC2C3CCC(C4CC34)C2C1 (centres unmarked) [compound 7, 4-Amidino-4-azatetracyclo[5.3.2.0^2,6.0^8.10]dodecane Hydrochloride]",cytotoxicity MCC,MDCK cells,100 µM
same,inhibition of wt channel,A/M2 wt,potent low-micromolar inhibitors
same,EC50,A/PR/8/34 (A/H1N1); [2],> 100 µM
same,EC50,A/PR/8/34 (A/H1N1); [1],> 100 µM
"C1=CC2C3CC3C1C1CN(C3CCNCC3)CC21.Cl (centres unmarked) [compound 8, 4-(4-Piperidinyl)-4-azatetracyclo[5.3.2.0^2,6.0^8.10]dodec-11-ene Dihydrochloride]",cytotoxicity MCC,MDCK cells,100 µM
same,activity on A/M2 channels,A/M2 wt,did not display any activity
same,EC50,A/PR/8/34 (A/H1N1); [2],≤ 0.8 µM
same,EC50,A/PR/8/34 (A/H1N1); [1],< 0.8 µM
"C1CC(N2CC3C4CCC(C5CC45)C3C2)CCN1.Cl (centres unmarked) [compound 9, 4-(4-Piperidinyl)-4-azatetracyclo[5.3.2.0^2,6.0^8.10]dodecane Dihydrochloride]",cytotoxicity MCC,MDCK cells,20 µM
same,activity on A/M2 channels,A/M2 wt,did not display any activity
same,EC50,A/PR/8/34 (A/H1N1); [2],> 100 µM
same,EC50,A/PR/8/34 (A/H1N1); [1],> 100 µM
"C1=CC2C1C1C=CC2C2CNCC12.Cl (centres unmarked) [compound 11, 4-Azatetracyclo[5.4.2.0^2,6.0^8.11]trideca-9,12-diene Hydrochloride]",inhibition of plaque formation,A/HK/7/87,visible inhibition of plaque formation
same,inhibition of wt channel,A/M2 wt,potent low-micromolar inhibitors
same,EC50,A/PR/8/34 (A/H1N1); [1],< 0.8 µM
"C1CC2C1C1CCC2C2CNCC12.Cl (centres unmarked) [compound 12, 4-Azatetracyclo[5.4.2.0^2,6.0^8.11]tridecane Hydrochloride]",concentration at which visibly toxic,MDCK cells,2000 to 8000 nM
same,reduction in plaque size or number,A/HK/7/87,clear
same,inhibition of wt channel,A/M2 wt,potent low-micromolar inhibitors
same,EC50,A/PR/8/34 (A/H1N1); [2],> 100 µM
same,EC50,A/PR/8/34 (A/H1N1); [1],> 100 µM
"Cl.N=C(N)N1CC2C3C=CC(C4C=CC43)C2C1 (centres unmarked) [compound 13, 4-Amidino-4-azatetracyclo[5.4.2.0^2,6.0^8.11]trideca-9,12-diene Hydrochloride]",cytotoxicity MCC,MDCK cells,20 µM
same,inhibition of plaque formation,A/HK/7/87,visible inhibition of plaque formation
same,inhibition of wt channel,A/M2 wt,potent low-micromolar inhibitors
same,EC50,A/PR/8/34 (A/H1N1); [2],> 100 µM
same,EC50,A/PR/8/34 (A/H1N1); [1],> 100 µM
"Cl.N=C(N)N1CC2C3CCC(C4CCC43)C2C1 (centres unmarked) [compound 14, 4-Amidino-4-azatetracyclo[5.4.2.0^2,6.0^8.11]tridecane Hydrochloride]",concentration at which visibly toxic,MDCK cells,2000 to 8000 nM
same,cytotoxicity MCC,MDCK cells,4 µM
same,reduction in plaque size or number,A/HK/7/87,modest
same,inhibition of wt channel,A/M2 wt,potent low-micromolar inhibitors
same,EC50,A/PR/8/34 (A/H1N1); [2],> 100 µM
same,EC50,A/PR/8/34 (A/H1N1); [1],> 100 µM
"CC12CC34CNCC35CC1(C)C(C)(C5)C2(C)C4.Cl (centres unmarked) [compound 18, 7,8,9,10-Tetramethyl-3-azapentacyclo[7.2.1.1^5,8.0^1,5.0^7,10]tridecane Hydrochloride]",cytotoxicity MCC,MDCK cells,100 µM
same,inhibition of plaque formation,A/HK/7/87,visible inhibition of plaque formation
"CC12CC34CN(C(=N)N)CC35CC1(C)C(C)(C5)C2(C)C4.Cl (centres unmarked) [compound 19, 3-Amidino-7,8,9,10-tetramethyl-3-azapentacyclo[7.2.1.1^5,8.0^1,5.0^7,10]tridecane Hydrochloride]",cytotoxicity MCC,MDCK cells,≥4 µM
same,EC50,A/PR/8/34 (A/H1N1); [2],> 100 µM
same,EC50,A/PR/8/34 (A/H1N1); [1],> 100 µM
